# Laboratory results: ChEMBL document CHEMBL4052709, “Novel analogs of N-acylhydroxyethylaminomethyl-4H-chromen-4-one scaffold as IL-5 inhibitors” (Bioorg Med Chem, 2017)
# Target: T1, Interleukin-5 (Mus musculus) (UniProt P04401)
# T1 sequence (whole entry): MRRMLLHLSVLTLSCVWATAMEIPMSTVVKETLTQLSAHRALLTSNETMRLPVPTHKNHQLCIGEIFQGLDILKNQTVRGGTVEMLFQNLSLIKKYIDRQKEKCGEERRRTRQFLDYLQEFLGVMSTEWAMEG
# Assay: Inhibition of IL-5 in mouse Y16 cells assessed as reduction in cell proliferation at 30 uM after 48 hrs by WST-1 assay relative to control
# Assay type: cell-based
row,inhibition [%],SMILES
1,6,CC(C)NC(=O)N(CCO)Cc1coc2cccc(OCC3CCCCC3)c2c1=O
2,84,O=C(Oc1ccccc1)N(CCO)Cc1coc2cccc(OCC3CCCCC3)c2c1=O
3,95,O=C(Cc1ccccc1)N(CCO)Cc1coc2cccc(OCC3CCCCC3)c2c1=O
4,89,CCOC(=O)N(CCO)Cc1coc2cccc(OCC3CCCCC3)c2c1=O
5,36,CC(C)(C)CCOc1cccc2occ(CN(CCO)C(=O)Oc3ccccc3)c(=O)c12
6,47,CC(C)(C)CCOc1cccc2occ(CN(CCO)C(=O)Nc3ccccc3)c(=O)c12
7,35,CC(C)CCOc1cccc2occ(CN(CCO)C(=O)Nc3ccccc3)c(=O)c12
8,42,CC(C)CCOc1cccc2occ(CN(CCO)C(=O)Oc3ccccc3)c(=O)c12
9,80,COc1ccc(NC(=O)N(CCO)Cc2coc3cccc(OCC4CCCCC4)c3c2=O)cc1
10,63,CCC(=O)N(CCO)Cc1coc2cccc(OCC3CCCCC3)c2c1=O
11,4,O=C(Nc1ccc(Cl)cc1)N(CCO)Cc1coc2cccc(OCC3CCCCC3)c2c1=O
12,15,CCCNC(=O)N(CCO)Cc1coc2cccc(OCC3CCCCC3)c2c1=O
13,61,CCCC(=O)N(CCO)Cc1coc2cccc(OCC3CCCCC3)c2c1=O
14,95,O=C(NCCCc1ccccc1)N(CCO)Cc1coc2cccc(OCC3CCCCC3)c2c1=O
15,85,O=C(NC1CCCCC1)N(CCO)Cc1coc2cccc(OCC3CCCCC3)c2c1=O
16,7,CCNC(=O)N(CCO)Cc1coc2cccc(OCC3CCCCC3)c2c1=O
17,92,COc1ccc(CC(=O)N(CCO)Cc2coc3cccc(OCC4CCCCC4)c3c2=O)cc1
18,61,O=C(Nc1ccccc1)N(CCO)Cc1coc2cccc(OCC3CCCCC3)c2c1=O
19,95,O=C(NCc1ccccc1)N(CCO)Cc1coc2cccc(OCC3CCCCC3)c2c1=O
20,46,CC(C)(C)CCOc1cccc2occ(CN(CCO)C(=O)Cc3ccccc3)c(=O)c12
21,37,CC(C)CCOc1cccc2occ(CN(CCO)C(=O)Cc3ccccc3)c(=O)c12

# Target: T1, Interleukin-5 (Mus musculus)
# Assay: Inhibition of IL-5 in mouse Y16 cells assessed as reduction in cell proliferation at 50 uM after 48 hrs by WST-1 assay relative to control
# Assay type: cell-based
row,inhibition [%],SMILES
1,79.1,O=c1c(-c2ccc(O[C@H]3O[C@@H](CO)[C@H](O)[C@@H](O)[C@@H]3O)cc2)coc2cc(O)cc(O)c12
